Each structure is given as a SMILES string. “And” between values parts separate entries of the source, which are not always exact repeats. Identical values can stand only once.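 A five-concentration, 48-hour dose response in 96-well plates underlies each endpoint, interpolated linearly between surrounding concentrations. At the GI50, growth is halved. TGI: total growth inhibition.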

What all share (experiment): growth of human tumour cells (NCI), 48 h
Experiment [1] has as its system NCI-H23 lung.
The test system of experiment [2] is COLO 205 colon.
Experiment [3] deals with HOP-92 NSCLC.
Experiment [4] concerns MCF7 breast.
For experiment [5], the system named is SN12C renal.
For experiment [6], the system named is HCC-2998 colon.
In experiment [7] the test system is BT-549 breast.
For experiment [8], the system named is ACHN renal.
Experiment [9] has as its system M14 melanoma.
Experiment [10] deals with SK-OV-3 ovarian.

`CNC(=O)c1cc(Oc2ccc(NC(=O)Nc3ccc(Cl)c(C(F)(F)F)c3)cc2)ccn1`: the GI50 in [1] is 2.19 µM and 1.65 µM and 1.95 µM; in [2], 2.57 µM and 2.9 µM and 2.33 µM; in experiment [3], 1.65 µM and 1.43 µM and 1.75 µM; in experiment [4], 2.62 µM and 2.41 µM and 2.82 µM; in [5] it was 2.84 µM and 2.98 µM and 2.31 µM; in experiment [6], 3.4 µM and 1.58 µM and 2.81 µM. Further, the GI50 in experiment [7] is 3.01 µM and 2.29 µM and 3.16 µM; in experiment [8] it was 3.22 µM and 3.45 µM and 2.64 µM; in experiment [9], 2.15 µM and 2.11 µM and 2.18 µM; in experiment [10] it was 3.14 µM and 3.28 µM and 2.5 µM. Also, the TGI in experiment [1] was 9.84 µM and 5.55 µM and 8.21 µM; in [2], 8.46 µM and 7.66 µM and 6.26 µM; in experiment [3], 5.62 µM and 5.12 µM and 6.38 µM; in [4] it was 9.82 µM and 7.38 µM and 10 µM; in experiment [5], > 10 µM and 10.6 µM and 7.15 µM; in experiment [6], > 10 µM and 3.11 µM and 8.92 µM. Further, the TGI is > 10 µM and 5.23 µM and 8.69 µM in experiment [7]; > 10 µM and 12 µM and 12.1 µM in [8]; 7.98 µM and 5.03 µM and 5.96 µM in experiment [9]; 9.87 µM and 12.5 µM and 7.31 µM in [10].

`COc1ccc2c(c1)C(=O)CC(C(N)=O)C2` (stereo not given): the TGI in experiment [1], in experiment [2], in experiment [3], in experiment [4], in [5] and in experiment [6] was more than 100 µM each time. The TGI in experiment [7], in [8], in experiment [9] and in [10] was more than 100 µM each time.

As to `Cc1cc(C2CC(O)C(CO)O2)c(Br)cc1Br` (stereo not given), the GI50 in experiment [1], in [2], in experiment [3], in [4], in experiment [5] and in experiment [6] was more than 100 µM throughout. Further, the GI50 in experiment [7], in experiment [8], in [9] and in [10] was more than 100 µM in each case. The TGI in experiment [1], in experiment [2], in experiment [3], in experiment [4], in [5] and in experiment [6] was more than 100 µM in each case. The TGI in [7], in [8], in [9] and in experiment [10] was more than 100 µM each time.

For the origin of these results see PubChem BioAssay (NCI).
